From US10766869B2, “Triazoles for the treatment of demyelinating dieases” (Vertex Pharmaceuticals Incorporated, priority 2015, dated 2020)
Where two headings read alike, the source gives them in different places.

Tested on: primary rat mixed cortical cells
Assay: In vitro myelination assay (MBP positive myelin strands, fold myelin pixels above background)
Format: cell-based
Settings: Rattus norvegicus; for fold induction at 1 µM: 1.0 μM compound; for fold induction at 10 µM: 10.0 μM compound
Summary of the method: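 P1 rat cortical cells (neurons, OPCs, oligodendrocytes, astrocytes, microglia) were cultured 14 days at 37 °C with compound, with half-medium changes containing 1× compound on days 6 and 10. Fixed cells were immunostained for MBP and imaged at 10×. Total MBP myelin pixels per well were expressed as fold above no-compound baseline at 1.0 μM and 10.0 μM.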

[1] = relative to baseline of no added compound, read-out: Fold myelin pixels above background
[2] = relative to baseline of no added compound, read-out: Fold myelin pixels above background, 1.0 μM
[3] = relative to baseline of no added compound, read-out: Fold myelin pixels above background, 10.0 μM
[4] = read-out: Fold myelin pixels above background relative to baseline of no added compound

Row | Compound | fold induction at 1 µM [1] | fold induction at 10 µM [1] | fold induction at 1 µM [2] | fold induction at 10 µM [3] | other results
1 | Cc1cc(Nc2ncn(-c3cc(F)cc(F)c3)n2)cc(N2CCN(CC(F)(F)F)CC2)c1 [Compound 421, 1-(3,5-difluorophenyl)-N-[3-methyl-5-[4-(2,2,2-trifluoroethyl)piperazin-1-yl]phenyl]-1,2,4-triazol-3-amine] | 100 to 1000 | 100 to 1000 | – | – | –
2 | Cc1cc(Nc2ncn(-c3cc(C)ccc3F)n2)cc(N2CCN(C3COC3)CC2)c1 [Compound 476, 1-(2-fluoro-5-methyl-phenyl)-N-[3-methyl-5-[4-(oxetan-3-yl)piperazin-1-yl]phenyl]-1,2,4-triazol-3-amine] | 10 to 100 | 10 to 100 | – | – | –
3 | CC(C)(C)c1cc(Nc2ncn(-c3cccc(F)c3)n2)cc(N2CCN(C3COC3)CC2)c1 [Compound 97, N-[3-tert-butyl-5-[4-(oxetan-3-yl)piperazin-1-yl]phenyl]-1-(3-fluorophenyl)-1,2,4-triazol-3-amine] | – | – | 100 to 1000 | 100 to 1000 | –
4 | Fc1cc(F)cc(-n2cnc(Nc3cc(N4CC(N5CCOCC5)C4)cc(F)n3)n2)c1 [Compound 612, N-[1-(3,5-difluorophenyl)-1,2,4-triazol-3-yl]-6-fluoro-4-(3-morpholinoazetidin-1-yl)pyridin-2-amine] | ≤ 1 | 10 to 100 | – | – | –
5 | Cc1cc(Nc2ncn(-c3cc(F)cc(F)c3)n2)cc(N2CCC3(CCOC3)CC2)c1 [Compound 814, 1-(3,5-difluorophenyl)-N-[3-methyl-5-(2-oxa-8-azaspiro[4.5]decan-8-yl)phenyl]-1,2,4-triazol-3-amine] | – | – | – | – | fold induction at 1 µM [4]: 10 to 100; fold induction at 10 µM [4]: 1 to 10
6 | Fc1cc(F)cc(-n2cnc(Nc3cc(C(F)F)cc(N4CCCC5(COC5)C4)n3)n2)c1 [Compound 777, 4-(difluoromethyl)-N-[1-(3,5-difluorophenyl)-1,2,4-triazol-3-yl]-6-(2-oxa-8-azaspiro[3.5]nonan-8-yl)pyridin-2-amine] | 1 to 10 | 10 to 100 | – | – | –
7 | Cc1cc(Nc2ncn(-c3cc(F)cc(F)c3)n2)cc([C@@]2(O)CCN(C3COC3)C2)c1 (single isomer, unassigned) [Compound 101] | – | – | 1000 to 10000 | 1 to 10 | –
8 | Cc1cc(Nc2ncn(-c3cc(F)cc(F)c3)n2)cc(N2CC(CC(C)C)N3CCC[C@@H]3C2)c1 (stereo partly drawn) [Compound 29, N-[3-[(8aR)-4-isobutyl-3,4,6,7,8,8a-hexahydro-1H-pyrrolo[1,2-a]pyrazin-2-yl]-5-methyl-phenyl]-1-(3,5-difluorophenyl)-1,2,4-triazol-3-amine] | – | – | ≤ 1 | ≤ 1 | –
9 | Cc1cc(Nc2ncn(-c3cc(F)cc(OC(C)C)c3)n2)cc(N2CCN(C)CC2)c1 [Compound 205, 1-(3-fluoro-5-isopropoxy-phenyl)-N-[3-methyl-5-(4-methylpiperazin-1-yl)phenyl]-1,2,4-triazol-3-amine] | – | – | 100 to 1000 | ≤ 1 | –
10 | Cc1cc(Nc2ncn(-c3cc(F)cc(F)c3)n2)cc(N2CCC(N3CCN(C)CC3)CC2)c1 [Compound 772, 1-(3,5-difluorophenyl)-N-[3-methyl-5-[4-(4-methylpiperazin-1-yl)-1-piperidyl]phenyl]-1,2,4-triazol-3-amine] | 1 to 10 | ≤ 1 | – | – | –
11 | Cc1cc(Nc2ncn(-c3ccccc3)n2)cc(N2CCOCC2)c1 [Compound 45, N-(3-methyl-5-morpholino-phenyl)-1-phenyl-1,2,4-triazol-3-amine] | – | – | 1000 to 10000 | 100 to 1000 | –
12 | Cc1cc(Nc2ncn(-c3cc(F)cc(F)c3)n2)cc(N2CCn3ccnc3C2)c1 [Compound 19, 1-(3,5-difluorophenyl)-N-[3-(6,8-dihydro-5H-imidazo[1,2-a]pyrazin-7-yl)-5-methyl-phenyl]-1,2,4-triazol-3-amine] | – | – | 10 to 100 | 1 to 10 | –
